Columns and labels:
AR = molecular target: T1, AR (Homo sapiens, UniProt P10275); experiment: Cross screening: AR Agonist; assay type: biochemical
T1 construct: purchased GSK enhanced cross-screening panel (in-house)

PI3K-gamma = molecular target: T2, PI3K-gamma (Homo sapiens, UniProt P48736); experiment: Cross screening: PI3K-gamma inhibitor; assay type: biochemical
T2 construct: purchased GSK enhanced cross-screening panel (in-house)

BSEP = BSEP (Homo sapiens, UniProt O95342); experiment: Cross screening: BSEP inhibitor
Chain of BSEP (O95342 whole entry): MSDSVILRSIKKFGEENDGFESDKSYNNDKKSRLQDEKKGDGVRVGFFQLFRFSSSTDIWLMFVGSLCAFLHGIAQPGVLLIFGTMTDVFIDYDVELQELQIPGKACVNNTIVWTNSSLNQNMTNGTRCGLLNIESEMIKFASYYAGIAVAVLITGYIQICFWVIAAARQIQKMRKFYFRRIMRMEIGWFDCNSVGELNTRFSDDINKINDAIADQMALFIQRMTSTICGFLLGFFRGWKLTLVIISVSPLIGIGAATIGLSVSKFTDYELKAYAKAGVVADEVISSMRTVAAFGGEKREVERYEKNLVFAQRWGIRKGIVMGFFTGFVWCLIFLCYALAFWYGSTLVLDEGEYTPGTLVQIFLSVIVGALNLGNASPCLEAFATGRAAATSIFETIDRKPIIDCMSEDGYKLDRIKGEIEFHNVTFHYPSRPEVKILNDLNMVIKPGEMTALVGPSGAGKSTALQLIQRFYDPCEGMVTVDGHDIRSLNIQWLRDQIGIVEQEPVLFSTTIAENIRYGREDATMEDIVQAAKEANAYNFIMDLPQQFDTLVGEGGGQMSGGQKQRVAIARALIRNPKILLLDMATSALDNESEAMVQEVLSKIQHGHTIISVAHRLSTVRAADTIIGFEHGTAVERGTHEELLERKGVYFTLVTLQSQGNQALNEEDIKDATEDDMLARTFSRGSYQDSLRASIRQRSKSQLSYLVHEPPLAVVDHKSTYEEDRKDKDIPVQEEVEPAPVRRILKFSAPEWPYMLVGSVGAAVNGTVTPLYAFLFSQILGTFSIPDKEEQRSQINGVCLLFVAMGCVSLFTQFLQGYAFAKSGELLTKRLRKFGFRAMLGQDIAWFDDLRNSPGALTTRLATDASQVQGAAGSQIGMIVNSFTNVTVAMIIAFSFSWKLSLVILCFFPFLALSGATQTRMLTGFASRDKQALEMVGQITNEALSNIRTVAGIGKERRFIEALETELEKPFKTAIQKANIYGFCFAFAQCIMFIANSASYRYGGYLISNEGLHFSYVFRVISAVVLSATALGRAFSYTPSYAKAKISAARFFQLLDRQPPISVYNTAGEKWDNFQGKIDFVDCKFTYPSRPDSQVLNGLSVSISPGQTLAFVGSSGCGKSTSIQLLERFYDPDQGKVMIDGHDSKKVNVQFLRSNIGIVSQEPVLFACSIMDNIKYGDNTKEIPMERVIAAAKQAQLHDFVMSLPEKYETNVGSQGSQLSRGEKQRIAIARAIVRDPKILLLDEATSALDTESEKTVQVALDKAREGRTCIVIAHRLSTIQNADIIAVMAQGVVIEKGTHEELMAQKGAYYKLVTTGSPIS

M2 (CHRM2) = molecular target: T3, M2 (CHRM2) (Homo sapiens, UniProt P08172); experiment: Cross screening: M2 (CHRM2) antagonist; assay type: biochemical
T3 construct: purchased GSK enhanced cross-screening panel (in-house)

Cyclooxygenase 2 (COX-2) = molecular target: T4, Cyclooxygenase 2 (COX-2) (Homo sapiens, UniProt P35354); experiment: Cross screening: Cyclooxygenase 2 (COX-2) antagonist; assay type: biochemical
T4 construct: purchased GSK enhanced cross-screening panel (in-house)

FALZ = molecular target: T5, FALZ (Homo sapiens, UniProt Q12830); experiment: BROMOscan FALZ; assay type: binding
T5 construct: ≥2000-fold selectivity over all 20 non-BET bromodomains tested; purchased DiscoverX
Method: (§1) The BRD4 BD1/BD2 TR-FRET assay had been used routinely for this optimization work, and in order to better understand the BET BD1 domain selectivity profile, 31 was tested in TR-FRET BRD2, BRD3, and BRDT assays.
(§2) [52] BROMOscan recombinant protein binding assays were carried out at DiscoverX. (accessed April 4, 2023).

BRD9 = molecular target: T6, BRD9 (Homo sapiens, UniProt Q9H8M2); experiment: BROMOscan BRD9; assay type: binding
T6 construct: ≥2000-fold selectivity over all 20 non-BET bromodomains tested; purchased DiscoverX
Method: as §1, §2

BRD3 BD1 = molecular target: T7, BRD3 BD1 (Homo sapiens, UniProt Q15059); experiment: BROMOscan BRD3 BD1; assay type: binding
T7 construct: BRD3 BD1; purchased DiscoverX
T7 sequence (Q15059 34-140 limits assumed): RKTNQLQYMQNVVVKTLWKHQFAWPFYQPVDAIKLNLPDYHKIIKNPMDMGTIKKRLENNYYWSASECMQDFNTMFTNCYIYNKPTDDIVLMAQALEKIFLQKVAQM
Method: as §1, §2

Kv1.5 (KCNA5) = molecular target: T8, Kv1.5 (KCNA5) (Homo sapiens, UniProt P22460); experiment: Cross screening: Kv1.5 (KCNA5) blocker; assay type: biochemical
T8 construct: purchased GSK enhanced cross-screening panel (in-house)

SMARCA2 = molecular target: T9, SMARCA2 (Homo sapiens, UniProt P51531); experiment: BROMOscan SMARCA2; assay type: binding
T9 construct: ≥2000-fold selectivity over all 20 non-BET bromodomains tested; purchased DiscoverX
Method: as §1, §2

Beta2 Adrenoceptor = molecular target: T10, Beta2 Adrenoceptor (Homo sapiens, UniProt P07550); experiment: Cross screening: Beta2 Adrenoceptor Antagonist; assay type: biochemical
T10 construct: purchased GSK enhanced cross-screening panel (in-house)

BRD2 BD1 [1] = molecular target: T11, BRD2 BD1 (Homo sapiens, UniProt P25440); experiment: BRD2 BD1 TR-FRET assay; assay type: binding
T11 sequence (P25440 74-180 limits assumed): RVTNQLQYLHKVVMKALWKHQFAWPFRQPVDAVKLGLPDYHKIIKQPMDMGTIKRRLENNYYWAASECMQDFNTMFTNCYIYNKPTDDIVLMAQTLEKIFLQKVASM
Method: as §1
(§3) All TR-FRET and hWB cytokine assays have been described previously.[54]

V1a = molecular target: T12, V1a (Homo sapiens, UniProt P37288); experiment: Cross screening: V1a antagonist; assay type: biochemical
T12 construct: purchased GSK enhanced cross-screening panel (in-house)

BRD4 BD1 = molecular target: T13, BRD4 BD1 (Homo sapiens, UniProt O60885); experiment: BROMOscan BRD4 BD1; assay type: binding
T13 construct: BRD4 BD1; purchased DiscoverX
Method: as §1, §2

BRPF3 = molecular target: T14, BRPF3 (Homo sapiens, UniProt Q9ULD4); experiment: BROMOscan BRPF3; assay type: binding
T14 construct: ≥2000-fold selectivity over all 20 non-BET bromodomains tested; purchased DiscoverX
Method: as §1, §2

NK1 = molecular target: T15, NK1 (Homo sapiens, UniProt P25103); experiment: Cross screening: NK1 antagonist; assay type: biochemical
T15 construct: purchased GSK enhanced cross-screening panel (in-house)
T15 sequence (P25103 whole entry): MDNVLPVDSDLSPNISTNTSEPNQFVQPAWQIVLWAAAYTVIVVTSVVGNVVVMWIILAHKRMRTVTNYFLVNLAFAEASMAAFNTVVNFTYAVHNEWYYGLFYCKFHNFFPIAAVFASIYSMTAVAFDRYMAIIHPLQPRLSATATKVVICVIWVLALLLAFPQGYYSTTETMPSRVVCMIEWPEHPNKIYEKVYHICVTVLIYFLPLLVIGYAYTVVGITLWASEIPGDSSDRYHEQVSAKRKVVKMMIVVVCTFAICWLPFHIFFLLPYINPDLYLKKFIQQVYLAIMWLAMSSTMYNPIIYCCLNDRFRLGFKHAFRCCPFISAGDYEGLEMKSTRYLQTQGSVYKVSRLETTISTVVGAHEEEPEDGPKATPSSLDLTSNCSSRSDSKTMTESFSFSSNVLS

BRD2 BD1 [2] = molecular target: T11, BRD2 BD1; experiment: BROMOscan BRD2 BD1; assay type: binding
Method: as §1, §2

BRPF1 = molecular target: T16, BRPF1 (Homo sapiens, UniProt P55201); experiment: BROMOscan BRPF1; assay type: binding
T16 construct: ≥2000-fold selectivity over all 20 non-BET bromodomains tested; purchased DiscoverX
T16 sequence (P55201 628-732 limits assumed): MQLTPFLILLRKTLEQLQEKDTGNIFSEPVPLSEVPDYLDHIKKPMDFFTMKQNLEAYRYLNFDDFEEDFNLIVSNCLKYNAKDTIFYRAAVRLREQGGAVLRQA
Method: as §1, §2

hCav1_2 = molecular target: T17, hCav1_2 (Homo sapiens, UniProt Q13936); experiment: Cross screening: hCav1_2 Blocker; assay type: biochemical
T17 construct: purchased GSK enhanced cross-screening panel (in-house)

SERT = molecular target: T18, SERT (Homo sapiens, UniProt P31645); experiment: Cross screening: SERT blocker; assay type: biochemical
T18 construct: purchased GSK enhanced cross-screening panel (in-house)
T18 sequence (P31645 whole entry): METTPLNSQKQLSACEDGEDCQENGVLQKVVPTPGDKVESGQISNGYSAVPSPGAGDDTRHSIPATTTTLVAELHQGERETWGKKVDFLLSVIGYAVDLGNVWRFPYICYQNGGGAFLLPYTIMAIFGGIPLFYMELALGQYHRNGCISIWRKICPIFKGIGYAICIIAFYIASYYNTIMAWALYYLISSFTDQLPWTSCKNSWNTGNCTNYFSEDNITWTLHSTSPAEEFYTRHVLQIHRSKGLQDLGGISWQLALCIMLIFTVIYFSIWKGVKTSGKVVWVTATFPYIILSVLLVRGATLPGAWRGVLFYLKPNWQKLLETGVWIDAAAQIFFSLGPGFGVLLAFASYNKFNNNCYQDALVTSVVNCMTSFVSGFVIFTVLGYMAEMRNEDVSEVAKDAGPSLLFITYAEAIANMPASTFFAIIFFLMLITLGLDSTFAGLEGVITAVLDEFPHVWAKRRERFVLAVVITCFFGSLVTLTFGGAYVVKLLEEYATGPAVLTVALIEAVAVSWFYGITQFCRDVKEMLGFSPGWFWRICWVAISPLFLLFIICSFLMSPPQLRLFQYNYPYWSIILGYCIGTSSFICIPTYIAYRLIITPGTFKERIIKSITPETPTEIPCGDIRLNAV

hERG = hERG (Homo sapiens, UniProt Q12809); experiment: Cross screening: hERG blocker
PCAF = molecular target: T19, PCAF (Homo sapiens, UniProt Q92831); experiment: BROMOscan PCAF; assay type: binding
T19 construct: ≥2000-fold selectivity over all 20 non-BET bromodomains tested; purchased DiscoverX
Method: as §1, §2

OATP1B1 = OATP1B1 (Homo sapiens, UniProt Q9Y6L6); experiment: Cross screening: OATP1B1 inhibitor
SMARCA4 = molecular target: T20, SMARCA4 (Homo sapiens, UniProt P51532); experiment: BROMOscan SMARCA4; assay type: binding
T20 construct: ≥2000-fold selectivity over all 20 non-BET bromodomains tested; purchased DiscoverX
Method: as §1, §2

BRD2 BD2 = molecular target: T21, BRD2 BD2 (Homo sapiens, UniProt P25440); experiment: BROMOscan BRD2 BD2; assay type: binding
T21 construct: BRD2 BD2; purchased DiscoverX
Method: as §1, §2

KCNQ1 = KCNQ1 (Homo sapiens, UniProt P51787); experiment: Cross screening: KCNQ1 blocker
Chain of KCNQ1 (P51787 whole entry): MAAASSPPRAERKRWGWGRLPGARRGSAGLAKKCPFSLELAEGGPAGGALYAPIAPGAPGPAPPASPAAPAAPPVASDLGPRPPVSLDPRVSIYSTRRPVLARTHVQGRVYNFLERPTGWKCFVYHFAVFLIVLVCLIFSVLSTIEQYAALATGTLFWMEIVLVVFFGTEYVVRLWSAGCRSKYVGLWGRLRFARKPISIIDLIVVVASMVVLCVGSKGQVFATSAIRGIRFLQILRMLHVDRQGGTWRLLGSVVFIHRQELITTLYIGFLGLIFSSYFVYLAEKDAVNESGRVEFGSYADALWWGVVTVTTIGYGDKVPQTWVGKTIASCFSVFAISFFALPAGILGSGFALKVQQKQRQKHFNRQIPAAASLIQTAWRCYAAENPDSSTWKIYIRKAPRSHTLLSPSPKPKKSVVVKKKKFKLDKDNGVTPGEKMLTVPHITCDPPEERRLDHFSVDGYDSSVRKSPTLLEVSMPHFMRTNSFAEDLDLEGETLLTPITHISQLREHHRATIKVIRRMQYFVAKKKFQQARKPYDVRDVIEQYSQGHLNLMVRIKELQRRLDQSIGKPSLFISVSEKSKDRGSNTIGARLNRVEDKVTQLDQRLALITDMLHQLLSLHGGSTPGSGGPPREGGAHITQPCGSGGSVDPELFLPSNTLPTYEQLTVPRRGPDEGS

BAZ2A = molecular target: T22, BAZ2A (Homo sapiens, UniProt Q9UIF9); experiment: BROMOscan BAZ2A; assay type: binding
T22 construct: ≥2000-fold selectivity over all 20 non-BET bromodomains tested; purchased DiscoverX
Method: as §1, §2

BRDT BD2 = BRDT BD2 (Homo sapiens, UniProt Q58F21); experiment: BROMOscan BRDT BD2; assay type: binding
Method: as §1, §2

[3] = molecular target: T23, Acetylcholinesterase (AChE) (Homo sapiens, UniProt P22303); experiment: Cross screening: Acetylcholinesterase (AChE) antagonist; assay type: biochemical
T23 construct: purchased GSK enhanced cross-screening panel (in-house)

CB1 = molecular target: T24, CB1 (Homo sapiens, UniProt P21554); experiment: Cross screening: CB1 Agonist; assay type: biochemical
T24 construct: purchased GSK enhanced cross-screening panel (in-house)
T24 sequence (P21554 whole entry): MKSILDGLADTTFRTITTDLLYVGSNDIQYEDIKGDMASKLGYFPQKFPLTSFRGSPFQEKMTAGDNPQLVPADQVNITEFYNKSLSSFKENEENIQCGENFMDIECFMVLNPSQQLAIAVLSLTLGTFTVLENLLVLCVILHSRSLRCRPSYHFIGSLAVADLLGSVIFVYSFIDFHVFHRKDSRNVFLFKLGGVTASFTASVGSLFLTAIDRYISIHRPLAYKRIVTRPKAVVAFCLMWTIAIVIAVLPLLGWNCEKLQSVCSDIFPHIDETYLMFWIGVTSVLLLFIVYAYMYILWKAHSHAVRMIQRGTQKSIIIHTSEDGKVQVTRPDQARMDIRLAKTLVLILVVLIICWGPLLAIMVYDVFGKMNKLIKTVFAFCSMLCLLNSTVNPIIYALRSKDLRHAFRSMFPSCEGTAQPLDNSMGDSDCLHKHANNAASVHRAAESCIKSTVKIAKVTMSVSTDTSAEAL

GR = molecular target: T25, GR (Homo sapiens, UniProt P04150); experiment: Cross screening: GR Agonist; assay type: biochemical
T25 construct: purchased GSK enhanced cross-screening panel (in-house)

ATAD2A = molecular target: T26, ATAD2A (Homo sapiens, UniProt Q6PL18); experiment: BROMOscan ATAD2A; assay type: binding
T26 construct: ≥2000-fold selectivity over all 20 non-BET bromodomains tested; purchased DiscoverX
Method: as §1, §2

BRDT BD1 = BRDT BD1 (Homo sapiens, UniProt Q58F21); experiment: BRDT BD1 TR-FRET assay; assay type: binding
Method: as §1, §3

OPRM1 = molecular target: T27, OPRM1 (Homo sapiens, UniProt P35372); experiment: Cross screening: OPRM1 Agonist; assay type: biochemical
T27 construct: purchased GSK enhanced cross-screening panel (in-house)

ATAD2B = molecular target: T28, ATAD2B (Homo sapiens, UniProt Q9ULI0); experiment: BROMOscan ATAD2B; assay type: binding
T28 construct: ≥2000-fold selectivity over all 20 non-BET bromodomains tested; purchased DiscoverX
T28 sequence (Q9ULI0 951-1066 limits assumed): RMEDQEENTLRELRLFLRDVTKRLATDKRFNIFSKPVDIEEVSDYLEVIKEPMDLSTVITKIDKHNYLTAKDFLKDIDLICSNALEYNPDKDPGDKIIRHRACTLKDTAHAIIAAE
Method: as §1, §2

BAZ2B = molecular target: T29, BAZ2B (Homo sapiens, UniProt Q9UIF8); experiment: BROMOscan BAZ2B; assay type: binding
T29 construct: ≥2000-fold selectivity over all 20 non-BET bromodomains tested; purchased DiscoverX
Method: as §1, §2

BRD1 = molecular target: T30, BRD1 (Homo sapiens, UniProt O95696); experiment: BROMOscan BRD1; assay type: binding
T30 construct: ≥2000-fold selectivity over all 20 non-BET bromodomains tested; purchased DiscoverX
T30 sequence (O95696 562-666 limits assumed): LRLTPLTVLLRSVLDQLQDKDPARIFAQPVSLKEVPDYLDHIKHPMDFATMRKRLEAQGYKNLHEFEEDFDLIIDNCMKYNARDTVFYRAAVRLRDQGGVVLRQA
Method: as §1, §2

Monoamine Oxidase A = molecular target: T31, Monoamine Oxidase A (Homo sapiens, UniProt P21397); experiment: Cross screening: Monoamine Oxidase A antagonist; assay type: biochemical
T31 construct: purchased GSK enhanced cross-screening panel (in-house)

BRD3 BD2 = BRD3 BD2 (Homo sapiens, UniProt Q15059); experiment: BROMOscan BRD3 BD2; assay type: binding
Method: as §1, §2

T1 sequence (P10275 whole entry): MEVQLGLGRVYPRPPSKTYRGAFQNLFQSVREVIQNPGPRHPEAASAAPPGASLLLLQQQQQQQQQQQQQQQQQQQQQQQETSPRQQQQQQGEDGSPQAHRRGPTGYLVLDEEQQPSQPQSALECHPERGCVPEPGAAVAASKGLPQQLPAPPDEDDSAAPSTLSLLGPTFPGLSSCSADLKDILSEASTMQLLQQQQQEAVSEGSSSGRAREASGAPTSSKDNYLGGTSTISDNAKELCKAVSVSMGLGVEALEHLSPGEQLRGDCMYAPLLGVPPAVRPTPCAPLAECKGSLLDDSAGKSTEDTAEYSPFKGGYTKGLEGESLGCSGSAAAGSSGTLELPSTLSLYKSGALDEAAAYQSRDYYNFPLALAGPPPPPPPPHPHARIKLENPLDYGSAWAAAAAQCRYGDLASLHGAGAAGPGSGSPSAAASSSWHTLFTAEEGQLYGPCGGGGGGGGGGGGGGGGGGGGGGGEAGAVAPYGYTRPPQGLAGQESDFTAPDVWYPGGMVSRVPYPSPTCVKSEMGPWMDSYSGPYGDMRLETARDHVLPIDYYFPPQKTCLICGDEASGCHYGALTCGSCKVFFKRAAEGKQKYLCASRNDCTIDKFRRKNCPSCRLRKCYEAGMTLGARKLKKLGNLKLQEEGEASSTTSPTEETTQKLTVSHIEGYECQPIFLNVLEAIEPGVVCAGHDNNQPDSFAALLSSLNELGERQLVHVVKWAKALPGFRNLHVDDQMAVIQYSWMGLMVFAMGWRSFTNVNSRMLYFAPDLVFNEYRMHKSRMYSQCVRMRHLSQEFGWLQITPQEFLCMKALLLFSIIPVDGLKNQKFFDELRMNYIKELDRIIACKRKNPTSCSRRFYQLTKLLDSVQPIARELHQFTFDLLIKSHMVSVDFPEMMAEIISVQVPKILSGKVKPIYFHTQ

## Cc1cc(-c2nc3ccccc3n2C[C@@H]2CCCN(C(=O)C3CCN(C(C)C)CC3)C2)cn(C)c1=O [Compound 31, (S)-5-(1-((1-(1-Isopropylpiperidine-4-carbonyl)piperidin-3-yl)methyl)-1H-benzo [d]imidazole-2-yl)-1,3-dimethylpyridin-2(1H)-one]
AR
  pXC50 AR Agonist: < 4.0
PI3K-gamma
  pXC50 PI3K-gamma inhibitor: < 4.5
BSEP
  pXC50 BSEP inhibitor: < 3.7
M2 (CHRM2)
  pXC50 M2 (CHRM2) antagonist: < 4.3
Cyclooxygenase 2 (COX-2)
  pXC50 Cyclooxygenase 2 (COX-2) antagonist: < 4.0
FALZ
  Kd: > 31.6 µM
BRD9
  Kd: 25.1 µM
BRD3 BD1
  BROMOscan pKd BRD3 BD1: 8.4
BRD3 BD1; BROMOscan
  fold selectivity BRD3 BD1 over BD2: 400 fold
Kv1.5 (KCNA5)
  pXC50 Kv1.5 (KCNA5) blocker: < 4.3
SMARCA2
  Kd: > 31.6 µM
Beta2 Adrenoceptor
  pXC50 Beta2 Adrenoceptor Antagonist: < 4.0
BRD2 BD1 [1]
  BRD2 BD1 TR-FRET pIC50: 8.0
BRD2 BD1 [1]; TR-FRET
  fold selectivity BRD2 BD1 over BD2: 400 fold
V1a
  pXC50 V1a antagonist: < 4.3
BRD4 BD1
  BROMOscan pKd BRD4 BD1: 8.1
BRD4 BD1; BROMOscan
  fold selectivity BRD4 BD1 over BD2: 316 fold
BRPF3
  Kd: > 31.6 µM
NK1
  pXC50 NK1 antagonist: < 4.6
BRD2 BD1 [2]
  BROMOscan pKd BRD2 BD1: 8.5
BRD2 BD1 [2]; BROMOscan
  fold selectivity BRD2 BD1 over BD2: 1000 fold
BRPF1
  Kd: 15.8 µM
hCav1_2
  pXC50 hCav1_2 Blocker: < 4.0
SERT
  pXC50 SERT blocker: < 4.0
hERG
  pXC50 hERG blocker: < 4.3
PCAF
  Kd: > 31.6 µM
OATP1B1
  pXC50 OATP1B1 inhibitor: < 4.3
SMARCA4
  Kd: > 31.6 µM
BRD2 BD2
  BROMOscan pKd BRD2 BD2: 5.5
KCNQ1
  pXC50 KCNQ1 blocker: < 4.6
BAZ2A
  Kd: > 31.6 µM
BRDT BD2
  BROMOscan pKd BRDT BD2: 5.5
[3]
  pXC50 Acetylcholinesterase (AChE) antagonist: < 4.0
CB1
  pXC50 CB1 Agonist: < 4.0
GR
  pXC50 GR Agonist: < 4.0
ATAD2A
  Kd: > 31.6 µM
BRDT BD1
  BRDT BD1 TR-FRET pIC50: 7.3
BRDT BD1; TR-FRET
  fold selectivity BRDT BD1 over BD2: 630 fold
OPRM1
  pXC50 OPRM1 Agonist: < 4.0
ATAD2B
  Kd: > 31.6 µM
BAZ2B
  Kd: > 31.6 µM
BRD1
  Kd: > 31.6 µM
Monoamine Oxidase A
  pXC50 Monoamine Oxidase A antagonist: < 4.0
BRD3 BD2
  BROMOscan pKd BRD3 BD2: 5.8
